PubChem BioAssay (NCI)
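The concentration for 50% growth inhibition is given as GI50. The concentration for full growth arrest is given as TGI.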

Columns and labels:
Assay in all cases: DTP human tumour cell line panel, 384-well format
SF-539 CNS = system: SF-539 CNS
T-47D breast = system: T-47D breast
NCI/ADR-RES ovarian = system: NCI/ADR-RES ovarian
OVCAR-3 ovarian = system: OVCAR-3 ovarian
OVCAR-5 ovarian = system: OVCAR-5 ovarian
SNB-75 CNS = system: SNB-75 CNS
RPMI-8226 leukemia = system: RPMI-8226 leukemia
MDA-MB-231 breast = system: MDA-MB-231 breast
EKVX NSCLC = system: EKVX NSCLC
ACHN renal = system: ACHN renal
MDA-MB-435 melanoma = system: MDA-MB-435 melanoma
RXF 393 renal = system: RXF 393 renal
HOP-92 NSCLC = system: HOP-92 NSCLC
COLO 205 colon = system: COLO 205 colon
IGROV1 ovarian = system: IGROV1 ovarian
NCI-H522 lung = system: NCI-H522 lung
HT29 colon = system: HT29 colon
MDA-MB-468 breast = system: MDA-MB-468 breast
SK-MEL-28 melanoma = system: SK-MEL-28 melanoma
SK-OV-3 ovarian = system: SK-OV-3 ovarian
UACC-257 melanoma = system: UACC-257 melanoma
NCI-H226 lung = system: NCI-H226 lung
DU-145 prostate = system: DU-145 prostate
HL-60(TB) leukemia = system: HL-60(TB) leukemia
786-0 renal = system: 786-0 renal
CCRF-CEM leukemia = system: CCRF-CEM leukemia
HOP-62 NSCLC = system: HOP-62 NSCLC
PC-3 prostate = system: PC-3 prostate
SK-MEL-2 melanoma = system: SK-MEL-2 melanoma
NCI-H460 NSCLC = system: NCI-H460 NSCLC
SN12C renal = system: SN12C renal
OVCAR-8 ovarian = system: OVCAR-8 ovarian
SR leukemia = system: SR leukemia
NCI-H322M lung = system: NCI-H322M lung
HS 578T breast = system: HS 578T breast
A549 NSCLC = system: A549 NSCLC
NCI-H23 lung = system: NCI-H23 lung
SF-295 CNS = system: SF-295 CNS
OVCAR-4 ovarian = system: OVCAR-4 ovarian
A498 renal = system: A498 renal
UACC-62 melanoma = system: UACC-62 melanoma
M14 melanoma = system: M14 melanoma
U251 glioblastoma = system: U251 glioblastoma
TK-10 renal = system: TK-10 renal
CAKI-1 renal = system: CAKI-1 renal
SK-MEL-5 melanoma = system: SK-MEL-5 melanoma
MALME-3M melanoma = system: MALME-3M melanoma
HCT-15 colon = system: HCT-15 colon
KM12 colon = system: KM12 colon
MOLT-4 leukemia = system: MOLT-4 leukemia
MCF7 breast = system: MCF7 breast
SW-620 colon = system: SW-620 colon
SF-268 CNS = system: SF-268 CNS
SNB-19 CNS = system: SNB-19 CNS
HCC-2998 colon = system: HCC-2998 colon
BT-549 breast = system: BT-549 breast

OCc1ccc(-c2nn(Cc3ccccc3)c3ccccc23)o1
GI50 (SF-539 CNS): 18.5 µM
TGI (SF-539 CNS): 34.6 µM
GI50 (T-47D breast): 9.48 µM
TGI (T-47D breast): 34.1 µM
GI50 (NCI/ADR-RES ovarian): 21 µM
TGI (NCI/ADR-RES ovarian): 42.7 µM
GI50 (OVCAR-3 ovarian): 9.85 µM
TGI (OVCAR-3 ovarian): 21.9 µM
GI50 (OVCAR-5 ovarian): 369 nM
TGI (OVCAR-5 ovarian): 5.99 µM
GI50 (SNB-75 CNS): 17.2 µM
TGI (SNB-75 CNS): 35.1 µM
GI50 (RPMI-8226 leukemia): 9.64 µM
TGI (RPMI-8226 leukemia): 21.3 µM
GI50 (MDA-MB-231 breast): 20.3 µM
TGI (MDA-MB-231 breast): 45.8 µM
GI50 (EKVX NSCLC): 27.3 µM
TGI (EKVX NSCLC): 68.1 µM
GI50 (ACHN renal): 35 µM
TGI (ACHN renal): 81.9 µM
GI50 (MDA-MB-435 melanoma): 20.8 µM
TGI (MDA-MB-435 melanoma): 38 µM
GI50 (RXF 393 renal): 11.4 µM
TGI (RXF 393 renal): 27.5 µM
GI50 (HOP-92 NSCLC): 16 µM
TGI (HOP-92 NSCLC): 30.8 µM
GI50 (COLO 205 colon): 18.6 µM
TGI (COLO 205 colon): 36.5 µM
GI50 (IGROV1 ovarian): 424 nM
TGI (IGROV1 ovarian): 2310 nM
GI50 (NCI-H522 lung): 14.6 µM
TGI (NCI-H522 lung): 28.2 µM
GI50 (HT29 colon): 17.9 µM
TGI (HT29 colon): 32.3 µM
GI50 (MDA-MB-468 breast): 181 nM
TGI (MDA-MB-468 breast): 328 nM
GI50 (SK-MEL-28 melanoma): 24 µM
TGI (SK-MEL-28 melanoma): 41.4 µM
GI50 (SK-OV-3 ovarian): 22.5 µM
TGI (SK-OV-3 ovarian): 41.4 µM
GI50 (UACC-257 melanoma): 1490 nM
TGI (UACC-257 melanoma): 3.15 µM
GI50 (NCI-H226 lung): 166 nM
TGI (NCI-H226 lung): 314 nM
GI50 (DU-145 prostate): 17.4 µM
TGI (DU-145 prostate): 32.8 µM
GI50 (HL-60(TB) leukemia): 16.6 µM
TGI (HL-60(TB) leukemia): 30.4 µM
GI50 (786-0 renal): 34.5 µM
TGI (786-0 renal): > 100 µM
GI50 (CCRF-CEM leukemia): 18 µM
TGI (CCRF-CEM leukemia): 32.3 µM
GI50 (HOP-62 NSCLC): 5.79 µM
TGI (HOP-62 NSCLC): 26.3 µM
GI50 (PC-3 prostate): 19.7 µM
TGI (PC-3 prostate): 37.3 µM
GI50 (SK-MEL-2 melanoma): 36.5 µM
TGI (SK-MEL-2 melanoma): 54.5 µM
GI50 (NCI-H460 NSCLC): 16.4 µM
TGI (NCI-H460 NSCLC): 30.3 µM
GI50 (SN12C renal): 50.1 µM
TGI (SN12C renal): > 100 µM
GI50 (OVCAR-8 ovarian): 23.5 µM
TGI (OVCAR-8 ovarian): 47 µM
GI50 (SR leukemia): 3.02 µM
TGI (SR leukemia): 7.56 µM
GI50 (NCI-H322M lung): 33 µM
TGI (NCI-H322M lung): > 100 µM
GI50 (HS 578T breast): 20.3 µM
TGI (HS 578T breast): 42.8 µM
GI50 (A549 NSCLC): 19.8 µM
TGI (A549 NSCLC): 44.9 µM
GI50 (NCI-H23 lung): 25.3 µM
TGI (NCI-H23 lung): 53.1 µM
GI50 (SF-295 CNS): 46.6 µM
TGI (SF-295 CNS): > 100 µM
GI50 (OVCAR-4 ovarian): 23.5 µM
TGI (OVCAR-4 ovarian): 49 µM
GI50 (A498 renal): 24 nM
TGI (A498 renal): 65.5 nM
GI50 (UACC-62 melanoma): 1970 nM
TGI (UACC-62 melanoma): 31.4 µM
GI50 (M14 melanoma): 21.7 µM
TGI (M14 melanoma): 39.7 µM
GI50 (U251 glioblastoma): 13.3 µM
TGI (U251 glioblastoma): 28.1 µM
GI50 (TK-10 renal): 374 nM
TGI (TK-10 renal): 2290 nM
GI50 (CAKI-1 renal): 427 nM
TGI (CAKI-1 renal): 3.49 µM
GI50 (SK-MEL-5 melanoma): 18.3 µM
TGI (SK-MEL-5 melanoma): 32.5 µM
GI50 (MALME-3M melanoma): 20.4 µM
TGI (MALME-3M melanoma): 36.4 µM
GI50 (HCT-15 colon): 23 µM
TGI (HCT-15 colon): 49.6 µM
GI50 (KM12 colon): 18.6 µM
TGI (KM12 colon): 34 µM
GI50 (MOLT-4 leukemia): 12.1 µM
TGI (MOLT-4 leukemia): 24.7 µM
GI50 (MCF7 breast): 2340 nM
TGI (MCF7 breast): > 100 µM
GI50 (SW-620 colon): 20.2 µM
TGI (SW-620 colon): 41.5 µM
GI50 (SF-268 CNS): 29.8 µM
TGI (SF-268 CNS): 69.7 µM
GI50 (SNB-19 CNS): 46.2 µM
TGI (SNB-19 CNS): > 100 µM
GI50 (HCC-2998 colon): 20.1 µM
TGI (HCC-2998 colon): 34.9 µM
GI50 (BT-549 breast): 17.4 µM
TGI (BT-549 breast): 31.5 µM
